Key:
Experiment in all cases: Bliss interaction score (quartile over a dose matrix) (fitness difference); higher = more antagonism (negative = synergy)
S. aureus DSM 20231 = test system: S. aureus DSM 20231
In short: (§1)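 OD595 was read at entry into stationary phase and expressed relative to the robust mean of the no-drug wells on the same plate, capped at 1. The resulting ratio is the fitness value. The Bliss score, observed fitness minus product-based expected fitness with single-drug fitness inferred from combinations, is summarised by quartiles over technical, biological and donor/recipient replicates.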

S. aureus Newman = test system: S. aureus Newman
In short: as §1

B. subtilis 168 = test system: B. subtilis 168
In short: as §1

S. pneumoniae D39V = test system: S. pneumoniae D39V
In short: as §1
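Note: first quartile when negative (synergy) and third quartile when positive (antagonism).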

SMILES	Bliss interaction score (S. aureus DSM 20231)	Bliss interaction score (S. aureus Newman)	Bliss interaction score (B. subtilis 168)	Bliss interaction score (S. pneumoniae D39V)	Bliss interaction score (S. aureus DSM 20231; main component drawn)	Bliss interaction score (S. aureus Newman; main component drawn)	Bliss interaction score (B. subtilis 168; main component drawn)	Bliss interaction score (S. pneumoniae D39V; main component drawn)
CC[C@H]1OC(=O)[C@H](C)[C@@H](O[C@H]2C[C@@](C)(OC)[C@@H](O)[C@H](C)O2)[C@H](C)[C@@H](O[C@@H]2O[C@H](C)C[C@H](N(C)C)[C@H]2O)[C@](C)(O)C[C@@H](C)C(=O)[C@H](C)[C@@H](O)[C@]1(C)O [Erythromycin] + CO[C@H]1/C=C/O[C@@]2(C)Oc3c(C)c(O)c4c(O)c(c(/C=N/N5CCN(C)CC5)c(O)c4c3C2=O)NC(=O)/C(C)=C\C=C\[C@H](C)[C@H](O)[C@@H](C)[C@@H](O)[C@@H](C)[C@H](OC(C)=O)[C@@H]1C [Rifampicin]	0.0363	0.0582	0.116	0.0763				
CO[C@@]12[C@H](COC(N)=O)C3=C(C(=O)C(C)=C(N)C3=O)N1C[C@@H]1N[C@@H]12 [MitomycinC] + Oc1cc(Cl)ccc1Oc1ccc(Cl)cc1Cl [Triclosan]	-0.025	-0.0343	-0.0544	0.0578				
CN[C@@H]1[C@H](O)[C@H](NC)[C@H]2O[C@@]3(O)C(=O)C[C@@H](C)O[C@H]3O[C@@H]2[C@H]1O [Spectinomycin] + CC[C@H]1OC(=O)[C@H](C)C(=O)[C@H](C)[C@@H](O[C@@H]2O[C@H](C)C[C@H](N(C)C)[C@H]2O)[C@](C)(OC)C[C@@H](C)C(=O)[C@H](C)[C@H]2N(CCCCn3cnc(-c4cccnc4)c3)C(=O)O[C@]12C [Telithromycin]	-0.0419	-0.0947	0.038	-0.14				
CO[C@@]12[C@H](COC(N)=O)C3=C(C(=O)C(C)=C(N)C3=O)N1C[C@@H]1N[C@@H]12 [MitomycinC] + CO[C@H]1/C=C/O[C@@]2(C)Oc3c(C)c(O)c4c(O)c(c(/C=N/N5CCN(C)CC5)c(O)c4c3C2=O)NC(=O)/C(C)=C\C=C\[C@H](C)[C@H](O)[C@@H](C)[C@@H](O)[C@@H](C)[C@H](OC(C)=O)[C@@H]1C [Rifampicin]	-0.0914	-0.0175	0.155	-0.117				
CN[C@H](CC(C)C)C(=O)N[C@H]1C(=O)N[C@@H](CC(N)=O)C(=O)N[C@H]2C(=O)N[C@H]3C(=O)N[C@H](C(=O)N[C@H](C(=O)O)c4cc(O)cc(O)c4-c4cc3ccc4O)[C@H](O[C@H]3C[C@](C)(N)[C@@H](O)[C@H](C)O3)c3ccc(c(Cl)c3)Oc3cc2cc(c3O[C@@H]2O[C@H](CO)[C@@H](O)[C@H](O)[C@H]2O[C@H]2C[C@](C)(NCc3ccc(-c4ccc(Cl)cc4)cc3)[C@@H](O)[C@H](C)O2)Oc2ccc(cc2Cl)[C@H]1O [Oritavancin] + CN1C2=CC=CC=C2N=C3C1=CC=CC3=O [Pyocyanin]	-0.047	-0.105	-0.0238	-0.0208				
CC[C@H](C)[C@H](N)C1=N[C@H](C(=O)N[C@@H](CC(C)C)C(=O)N[C@H](CCC(=O)O)C(=O)N[C@H](C(=O)N[C@H]2CCCCNC(=O)[C@H](CC(N)=O)NC(=O)[C@@H](CC(=O)O)NC(=O)[C@H](Cc3cnc[nH]3)NC(=O)[C@@H](Cc3ccccc3)NC(=O)[C@H]([C@@H](C)CC)NC(=O)[C@@H](CCCN)NC2=O)[C@@H](C)CC)CS1 [Bacitracin] + CC[C@H]1OC(=O)[C@H](C)[C@@H](O[C@H]2C[C@@](C)(OC)[C@@H](O)[C@H](C)O2)[C@H](C)[C@@H](O[C@@H]2O[C@H](C)C[C@H](N(C)C)[C@H]2O)[C@](C)(O)C[C@@H](C)C(=O)[C@H](C)[C@@H](O)[C@]1(C)O [Erythromycin]					-0.0209	-0.0632	-0.0517	0.0397
CC[C@H]1OC(=O)[C@H](C)[C@@H](O[C@H]2C[C@@](C)(OC)[C@@H](O)[C@H](C)O2)[C@H](C)[C@@H](O[C@@H]2O[C@H](C)C[C@H](N(C)C)[C@H]2O)[C@](C)(O)C[C@@H](C)C(=O)[C@H](C)[C@@H](O)[C@]1(C)O [Erythromycin] + C[C@@H](O)[C@H]1C(=O)N2C(C(=O)O)=C(SCCNC=N)C[C@H]12 [Imipenem]	0.0185	0.0221	0.078	-0.0344				
CC[C@H](C)[C@H](N)C1=N[C@H](C(=O)N[C@@H](CC(C)C)C(=O)N[C@H](CCC(=O)O)C(=O)N[C@H](C(=O)N[C@H]2CCCCNC(=O)[C@H](CC(N)=O)NC(=O)[C@@H](CC(=O)O)NC(=O)[C@H](Cc3cnc[nH]3)NC(=O)[C@@H](Cc3ccccc3)NC(=O)[C@H]([C@@H](C)CC)NC(=O)[C@@H](CCCN)NC2=O)[C@@H](C)CC)CS1 [Bacitracin] + C1=CC(=CC(=C1)Cl)NN=C(C#N)C#N [CCCP]					-0.0168	0.194	0.0608	0.0638
CN[C@H](CC(C)C)C(=O)N[C@H]1C(=O)N[C@@H](CC(N)=O)C(=O)N[C@H]2C(=O)N[C@H]3C(=O)N[C@H](C(=O)N[C@H](C(=O)O)c4cc(O)cc(O)c4-c4cc3ccc4O)[C@H](O[C@H]3C[C@](C)(N)[C@@H](O)[C@H](C)O3)c3ccc(c(Cl)c3)Oc3cc2cc(c3O[C@@H]2O[C@H](CO)[C@@H](O)[C@H](O)[C@H]2O[C@H]2C[C@](C)(NCc3ccc(-c4ccc(Cl)cc4)cc3)[C@@H](O)[C@H](C)O2)Oc2ccc(cc2Cl)[C@H]1O [Oritavancin] + CC[C@H]1OC(=O)[C@H](C)C(=O)[C@H](C)[C@@H](O[C@@H]2O[C@H](C)C[C@H](N(C)C)[C@H]2O)[C@](C)(OC)C[C@@H](C)C(=O)[C@H](C)[C@H]2N(CCCCn3cnc(-c4cccnc4)c3)C(=O)O[C@]12C [Telithromycin]	-0.0333	-0.0486	0.0211	0.0281				

Reference: the supplement of paper PMC10627819
